Assay results taken from the OligoGym collection.
“And” between values parts separate entries of the source, which are not always exact repeats. Equal entries are not always repeated. After the bases stand the sugars from the 5' end (letter, count) and the backbone: PS all phosphorothioate, else s phosphorothioate and o phosphodiester by linkage. Methylation of C is not given here. e = 2'-O-(2-methoxyethyl) (MOE); k = constrained ethyl (cEt); d = 2'-deoxy (DNA)

target: IRF4; conditions: ASO, MM.1R, 0.0625 µM

Sequence | target mRNA inhibition
CTGAGTTGTACAGGAC (sugars k3 d10 k3, PS) | 4%
CTGATGTGTTCTGGTA (sugars k3 d10 k3, PS) | 14% and 36%

same assay, conditions: ASO, MM.1R, 0.074 µM

Sequence | target mRNA inhibition [%]
CTTCCCTGAGAAATGG (sugars k3 d10 k3, PS) | 6

same assay, conditions: ASO, MM.1R, 0.222 µM

Sequence | target mRNA inhibition [%]
CTTCCCTGAGAAATGG (sugars k3 d10 k3, PS) | 2

same assay, conditions: ASO, MM.1R, 0.25 µM

Sequence | target mRNA inhibition
CTGAGTTGTACAGGAC (sugars k3 d10 k3, PS) | 22%
CTGATGTGTTCTGGTA (sugars k3 d10 k3, PS) | 27% and 41%

same assay, conditions: ASO, MM.1R, 0.666 µM

Sequence | target mRNA inhibition [%]
CTTCCCTGAGAAATGG (sugars k3 d10 k3, PS) | 1

same assay, conditions: ASO, MM.1R, 1 µM

Sequence | target mRNA inhibition
CTGAGTTGTACAGGAC (sugars k3 d10 k3, PS) | 55% and 52%
CTGATGTGTTCTGGTA (sugars k3 d10 k3, PS) | 45% and 53%
CTGCAAACGACAAGTG (sugars k3 d10 k3, PS) | -18%
CTGCTTGAGGTTTTCC (sugars k2 d9 e3 k2, PS) | 31%
CTGCTTGAGGTTTTCC (sugars kdddddddddkekeke, PS) | 20%
CTGCTTGAGGTTTTCC (sugars kkkdddddddddkeke, PS) | 50%
CTGGTAACTGTATGGA (sugars k3 d10 k3, PS) | 17%
CTGTTACCGATGCTTC (sugars kdddddddddkekeke, PS) | 2% and 24%
CTTGATAAAGGCTGAA (sugars kddddddddddkekek, PS) | 17%
CTTGATAAAGGCTGAA (sugars kdddddddddkekeke, PS) | 5%
CTTGGTTCTCTATAGT (sugars k3 d10 k3, PS) | 27%
GAAGCATTTTATCATC (sugars kddddddddddkekek, PS) | -12%
GAAGTACGAGCACATG (sugars k3 d10 k3, PS) | 18%
GAAGTTTACACTGGAT (sugars kdddddddddkekeke, PS) | 11%
GAAGTTTACACTGGAT (sugars kkddddddddddkeke, PS) | 46%
GAAGTTTACACTGGAT (sugars kkdddddddddkdkdk, PS) | 23%
GACAGCCGAAGCATTT (sugars k3 d10 k3, PS) | 6%
GACAGTGACTTGCATC (sugars kdddddddddkekeke, PS) | 0%
GACAGTGACTTGCATC (sugars kkddddddddddkeke, PS) | 25%
GACAGTGACTTGCATC (sugars kkdddddddddkdkdk, PS) | -7%
GACCAGAACTAATGTC (sugars k3 d10 k3, PS) | -27%

same assay, conditions: ASO, MM.1R, 2 µM

Sequence | target mRNA inhibition [%]
CTTCCCTGAGAAATGG (sugars k3 d10 k3, PS) | 4

same assay, conditions: ASO, MM.1R, 4 µM

Sequence | target mRNA inhibition
CTGAGTTGTACAGGAC (sugars k3 d10 k3, PS) | 81%
CTGATGTGTTCTGGTA (sugars k3 d10 k3, PS) | 69% and 70%

same assay, conditions: ASO, SK-MEL-28, 0.185 µM

Sequence | target mRNA inhibition [%]
CTTCCCTGAGAAATGG (sugars k3 d10 k3, PS) | 16

same assay, conditions: ASO, SK-MEL-28, 4 µM

Sequence | target mRNA inhibition
CTGCAGAACAGACGCG (sugars k3 d10 k3, PS) | 11%
CTGCAGTTCACGAAAC (sugars k3 d10 k3, PS) | 38%
CTGCATGAGGGTGACA (sugars k3 d10 k3, PS) | 19%
CTGCTTGAGGTTTTCC (sugars k3 d10 k3, PS) | 74%
CTGGACAGCCAAACAA (sugars k3 d10 k3, PS) | 21%
CTGGAGAGAACTCATG (sugars k3 d10 k3, PS) | 38%
CTGGATTGATGTGATA (sugars k3 d10 k3, PS) | 43%
CTGGCACCAAAAGTAC (sugars k3 d10 k3, PS) | 18%
CTGGCATTGAGACGGG (sugars k3 d10 k3, PS) | 61%
CTGGGTTTTCTGTAGG (sugars k3 d10 k3, PS) | 48%
CTGGTTCGCGCTCCGG (sugars k3 d10 k3, PS) | 7%
CTGTACACTTTGTACG (sugars k3 d10 k3, PS) | 34%
CTGTAGGGCGACTAAC (sugars k3 d10 k3, PS) | 49%
CTGTTAAGTCCCATCT (sugars k3 d10 k3, PS) | 54%
CTTAATTCTGGGTTAA (sugars k3 d10 k3, PS) | 53%
CTTACTAGGTGCTTGT (sugars k3 d10 k3, PS) | 38%
CTTATTATTTATGAGC (sugars k3 d10 k3, PS) | 37%
CTTCAACAGCACTGTC (sugars k3 d10 k3, PS) | 56%
CTTCACTGTTAGCTAC (sugars k3 d10 k3, PS) | 51%
CTTCAGCAAAGAGGGT (sugars k3 d10 k3, PS) | 59%
CTTCCAAGACAGCTTC (sugars k3 d10 k3, PS) | 63%
CTTCCCTGAGAAATGG (sugars k3 d10 k3, PS) | 50%
CTTGAAAAGCCAATGC (sugars k3 d10 k3, PS) | 58%
CTTGAAGAGCGCGGCG (sugars k3 d10 k3, PS) | 21%
CTTGAGGTTTTCCTAA (sugars k3 d10 k3, PS) | 40%
CTTTAACAAGTCCTCA (sugars k3 d10 k3, PS) | 52%
CTTTTACCCACCAAAG (sugars k3 d10 k3, PS) | 18%

Sequence | target mRNA inhibition
CTTTTTAGTTCATACC (sugars k3 d10 k3, PS) | 37%
GAAAAGCAGCGAAAAG (sugars k3 d10 k3, PS) | 2%
GAAAGAATGGCGCATA (sugars k3 d10 k3, PS) | 49%
GAAAGATTCAGCCTCT (sugars k3 d10 k3, PS) | 45%
GAACACCATGCCCAAC (sugars k3 d10 k3, PS) | 7%
GAACACTTTGAGGTGA (sugars k3 d10 k3, PS) | 14%
GAACAGTAACTTGACT (sugars k3 d10 k3, PS) | 4%
GAACGGAAGTTTACAC (sugars k3 d10 k3, PS) | 67%
GAAGAAGGCACCTTCG (sugars k3 d10 k3, PS) | 25%
GAAGCACTGGCATCGA (sugars k3 d10 k3, PS) | 44%
GAAGGATGGGACCGCC (sugars k3 d10 k3, PS) | 41%
GAATAAACACCCCTTC (sugars k3 d10 k3, PS) | 44%
GAATGAGGAAGCCGTT (sugars k3 d10 k3, PS) | 39%
GACACATTTTCTGGGT (sugars k3 d10 k3, PS) | 53% and 64%
GACACTTTTAGAGAGG (sugars k3 d10 k3, PS) | 87% and 78%
GACAGATGACATGCTT (sugars k3 d10 k3, PS) | 9%
GACCACAGTGAAGTCG (sugars k3 d10 k3, PS) | 14%
GACCACGAGGCCCCGG (sugars k3 d10 k3, PS) | 31%
GACCAGGATTCGCCAT (sugars k3 d10 k3, PS) | 23%
GACCTAATCTACAACA (sugars k3 d10 k3, PS) | 33%
GACGACTTAAGCTAAA (sugars k3 d10 k3, PS) | 62%
GACTACACCTACACAG (sugars k3 d10 k3, PS) | 32%
GACTCAAGAAAATAGG (sugars k3 d10 k3, PS) | 64%
GACTTAGAGGACAGTG (sugars k3 d10 k3, PS) | 48%
GACTTCGGGAGATACG (sugars k3 d10 k3, PS) | 14%
GAGCACATGTCAACAG (sugars k3 d10 k3, PS) | 40%
GAGCACCAGCCATCGG (sugars k3 d10 k3, PS) | 23%

same assay, conditions: ASO, SK-MEL-28, 5 µM

Sequence | target mRNA inhibition [%]
CTTCCCTGAGAAATGG (sugars k3 d10 k3, PS) | 60

same assay, conditions: ASO, SK-MEL-28, 15 µM

Sequence | target mRNA inhibition [%]
CTTCCCTGAGAAATGG (sugars k3 d10 k3, PS) | 85
